The subject of data set [1] is MAPK (Erk2). In words: MAPK phosphorylation ELISA in HUVEC. Format: cell-based, human. The conditions noted are these: HUVEC stimulation. On the procedure: HUVECs were cultured as above. Lyates were prepared in (1 mM EDTA, 0.5% Triton X-100, 6M urea, 5 mM NaF, 100 uM PMSF, 25 mM sodium pyrophosphate, 1 mM sodium orthovanadate, pH 7.2-7.4, 1× cOmplete™ mini EDTA-free protease inhibitor). BCA protein concentration kit was used to measure protein concentration of each lysate as per manufacturer's instructions (Thermo Scientific). Samples were subjected to ELISAs that measured phosphorylated MAPK and total MAPK levels according to the manufacturer's protocol (R&D Systems). 20 μg or 10 μg of protein from each sample was loaded in duplicate for phosphorylated MAPK and total MAPK readings respectively. Phosphorylated MAPK:total MAPK ratios were determined for each sample. The level of MAPK phosphorylation for all treatment groups were then normalized to that of the no treatment group (NT, EBM only) in each experiment.
On the technique in general: ELISA stands for enzyme-linked immunosorbent assay.

The target in data set [2] is T1, recombinant human IgG Fc (Homo sapiens, UniProt P01857).
T1 construct: purchased R&D Systems
In words: Tryptophan fluorescence spectroscopy binding to human IgG Fc (negative control). The conditions noted are these: increasing ligand concentrations. From the text:
Ligand and receptor interaction. […] Data was compiled using SoftMax and analyzed using Prism.

For data set [3], the system named is HUVEC. In words: COVID-19 patient serum induced HUVEC integrity destabilization, impedance (xCELLigence RTCA). Type of data set: cell-based, human.
Data set [4] relates to Influenza A virus HKx31 (H3N2). Type of data set: in vivo, C57BL/6J mice.
Data set [5] is described as follows: Pharmacokinetic analysis after intravenous bolus in rats (plasma ELISA). Format: in vivo, male Sprague Dawley rats. On the procedure: Indicated amounts (ug/kg) of parental Vasculotide and MPA-Br were intravenously administered via bolus injection to male Sprague Dawley rats. […] The 120 ug/kg dose provided the greatest sensitivity of detection in these studies and as such, PK measures presented pertain to this particular dose level. […] MPA-Br PK was evaluated in a multi-dose (MD) intravenous setting at 120 ug/kg once every 24 hours for three consecutive days.

Data set [6] has as its system histamine-induced vascular leakage. In words: Cutaneous histamine challenge, Evans blue dye extravasation. Type of data set: in vivo, male FVB mice. The conditions noted are these: prophylactic IP dose one hour prior to cutaneous histamine challenge. From the text:
10-week old male FVB mice were purchased from Jackson Laboratories. Mice were housed in a Vivarium on a standard light:dark cycle and were given free access to food and water. On day 0 mice were anesthetized with isoflurane and the entire dorsal area was shaved with an electric shaver. Residual hair was removed via application of depilatory cream. Residual cream was removed with sterile gauze and water. […] Immediately following Evans blue dye administration, and while still under anesthesia, a single PBS injection (dorsal, intradermal, 50 ul) and three equally spaced histamine injections (dorsal, intradermal, 1.25 ug contained in 50 ul) were applied. Once the intradermal injections were complete, the mice were removed from anesthesia and were placed back into their housing cages for 25 minutes.
Cardiac transperfusion After 25 minutes of exposure to histamine the mice were placed under anesthesia with an appropriate volume of 2.5% avertin (100 ul/10 g body weight via intraperitoneal injection). Once a deep plane of anesthesia was produced the mice were place and secured in a supine position, the chest was surgically opened, the heart was exposed and a catheter terminating in a 23 gauge needle was inserted into the left ventricle. Once the catheter was securely in place, a cut in the right atria was performed and 25 ml of cold PBS was delivered, via the catheter at 100 mmHg to flush out all intravascular Evans blue dye. Once a mouse was effectively perfused the dorsal skin was surgically removed. Four, 12 mm skin biopsies were collected (1PBS, 3 histamine) for each mouse using a standardized skin punch. In all cases, the biopsy that received PBS served as a baseline control for that individual mouse.
Quantification of Evans blue dye extravassation Skin biopsies were placed in labelled tubes and placed in a 60 degree Celsius oven for 16 hrs to removed all moisture. […] An Evans blue dye standard curve encompassing high and low experimental data points was constructed such that the amount of Evans blue dye extravassation (ug/g of skin) could be calculated.

The test system of data set [7] is HUVEC. In words: Thrombin- and TNF-α-induced HUVEC destabilisation, impedance (xCELLigence RTCA). To be noted: for total AUC normalised to vehicle control treatment: equivalent to CI for vehicle control cells. Format: cell-based, human.
Data set [8] addresses T2, Tie2 receptor (Homo sapiens, UniProt Q02763).
T2 construct: endogenous in cells; host or cells: HUVEC; HMVEC-tert (human dermal microvascular endothelial cells immortalized with telomerase)
In words: Tie2 phosphorylation ELISA in HUVEC. Format: cell-based. The conditions noted are these: 15 minute stimulation.
Method: Human umbilical vein endothelial cells (HUVECs) were seeded on 100 mm tissue culture plates in complete endothelial basal media (EBM)(Lonza) supplemented with ‘EGM single quots’ (Lonza) in 20% O2, 5% CO2 and 37° C. humidified chamber according to manufacturer's recommendations. […] Following the 15 minute stimulation, cells were placed on ice and washed twice in ice cold PBS. Cell lysates were prepared for use in 1C12 lysis buffer (1% NP-40, 20 mM Tris (pH 8.0), 137 mM NaCl, 10% Glycerol, 2 mM EDTA, 1 mM activated sodium orthovanadate). BCA protein concentration kit was used to measure protein concentration of each lysate as per manufacturer's instructions (Thermo Scientific). Samples were subjected to ELISAs that measured phosphorylated Tie2 and total Tie2 levels according to the manufacturers protocol. 20 μg or 5 μg of protein from each sample was loaded in duplicate for phosphorylated Tie2 and total Tie2 readings respectively. Phosphorylated Tie2:total Tie2 ratios were determined for each sample. The level of Tie2 phosphorylation for all treatment groups were then normalized to that of the no treatment group (NT, complete EBM only) in each experiment.

The target in data set [9] is T3, Tie2 receptor (Mus musculus, UniProt Q02858).
T3 construct: host or cells: primary mouse lung microvascular endothelial cells (MLMVEC)
In words: Tie2 phosphorylation ELISA in primary mouse lung microvascular endothelial cells (MLMVEC). Format: cell-based.
Method: Primary mouse lung endothelial cells (Cell Biologics) were seeded on 100 mm tissue culture plates in complete endothelial basal media (EBM)(Lonza) supplemented with ‘EGM single quots’ (Lonza). […] Following the 15 minute stimulation, cells were placed on ice and washed twice in ice cold PBS. Cell lysates were prepared for use in IC12 lysis buffer (1% NP-40, 20 mM Tris (pH 8.0), 137 mM NaCl, 10% Glycerol, 2 mM EDTA, 1 mM activated sodium orthovanadate). BCA protein concentration kit was used to measure protein concentration of each lysate as per manufacturer's instructions (Thermo Scientific). Samples were subjected to ELISAs that measured phosphorylated Tie2 and total Tie2 levels according to the manufacturer's protocol (mouse Tie2, R&D Systems). 50 μg or 5 μg of protein from each sample was loaded in triplicate for phosphorylated Tie2 and total Tie2 readings respectively. Phosphorylated Tie2:total Tie2 ratios were determined for each sample. The level of Tie2 phosphorylation for all treatment groups was then normalized to that of the no treatment group (NT, complete EBM only) in each experiment.

The mark [10] stands for this setting: day 6, MPA-Br 200 ng/day vs parental Vasculotide 500 ng.
[11] abbreviates: 120 ug/kg intravenous bolus, parental Vasculotide vs MPA-Br.

This note sets out measurements from patent US20250345387A1, “CORONAVIRUS THERAPEUTICS AND TREATMENT METHODS” (priority 2020, published 2025).

Entries after “also recorded” stand apart in the source; their conditions may differ. Where no end group is shown, it is not given here.

T2 sequence (Q02763 23-1124): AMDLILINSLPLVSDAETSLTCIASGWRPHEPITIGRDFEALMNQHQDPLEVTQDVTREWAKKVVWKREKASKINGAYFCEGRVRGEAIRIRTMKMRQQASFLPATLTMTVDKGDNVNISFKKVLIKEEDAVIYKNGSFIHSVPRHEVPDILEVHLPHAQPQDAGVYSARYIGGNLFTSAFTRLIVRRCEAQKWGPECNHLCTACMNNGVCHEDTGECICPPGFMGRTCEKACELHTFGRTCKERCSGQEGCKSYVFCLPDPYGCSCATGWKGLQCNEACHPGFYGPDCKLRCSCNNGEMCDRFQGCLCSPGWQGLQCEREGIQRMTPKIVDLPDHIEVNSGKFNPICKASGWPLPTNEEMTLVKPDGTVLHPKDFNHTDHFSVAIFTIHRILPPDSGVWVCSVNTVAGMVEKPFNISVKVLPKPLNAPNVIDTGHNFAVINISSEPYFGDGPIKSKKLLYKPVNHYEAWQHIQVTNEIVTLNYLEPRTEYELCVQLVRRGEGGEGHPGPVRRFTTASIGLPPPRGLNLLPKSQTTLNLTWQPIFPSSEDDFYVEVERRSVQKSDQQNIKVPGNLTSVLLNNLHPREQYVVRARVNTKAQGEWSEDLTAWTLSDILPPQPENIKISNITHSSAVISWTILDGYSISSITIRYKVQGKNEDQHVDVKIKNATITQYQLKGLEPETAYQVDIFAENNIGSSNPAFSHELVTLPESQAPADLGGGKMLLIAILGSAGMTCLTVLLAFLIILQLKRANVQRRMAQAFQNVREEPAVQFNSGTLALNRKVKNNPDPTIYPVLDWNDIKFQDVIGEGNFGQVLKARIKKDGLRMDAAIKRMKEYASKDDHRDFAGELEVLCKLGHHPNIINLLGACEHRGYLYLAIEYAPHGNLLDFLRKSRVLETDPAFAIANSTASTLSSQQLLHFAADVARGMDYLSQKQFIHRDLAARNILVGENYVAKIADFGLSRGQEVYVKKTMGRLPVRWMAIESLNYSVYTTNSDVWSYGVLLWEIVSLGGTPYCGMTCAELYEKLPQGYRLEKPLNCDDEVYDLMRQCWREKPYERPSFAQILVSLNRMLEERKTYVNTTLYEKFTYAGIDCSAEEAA
T3 sequence (Q02858 23-1122): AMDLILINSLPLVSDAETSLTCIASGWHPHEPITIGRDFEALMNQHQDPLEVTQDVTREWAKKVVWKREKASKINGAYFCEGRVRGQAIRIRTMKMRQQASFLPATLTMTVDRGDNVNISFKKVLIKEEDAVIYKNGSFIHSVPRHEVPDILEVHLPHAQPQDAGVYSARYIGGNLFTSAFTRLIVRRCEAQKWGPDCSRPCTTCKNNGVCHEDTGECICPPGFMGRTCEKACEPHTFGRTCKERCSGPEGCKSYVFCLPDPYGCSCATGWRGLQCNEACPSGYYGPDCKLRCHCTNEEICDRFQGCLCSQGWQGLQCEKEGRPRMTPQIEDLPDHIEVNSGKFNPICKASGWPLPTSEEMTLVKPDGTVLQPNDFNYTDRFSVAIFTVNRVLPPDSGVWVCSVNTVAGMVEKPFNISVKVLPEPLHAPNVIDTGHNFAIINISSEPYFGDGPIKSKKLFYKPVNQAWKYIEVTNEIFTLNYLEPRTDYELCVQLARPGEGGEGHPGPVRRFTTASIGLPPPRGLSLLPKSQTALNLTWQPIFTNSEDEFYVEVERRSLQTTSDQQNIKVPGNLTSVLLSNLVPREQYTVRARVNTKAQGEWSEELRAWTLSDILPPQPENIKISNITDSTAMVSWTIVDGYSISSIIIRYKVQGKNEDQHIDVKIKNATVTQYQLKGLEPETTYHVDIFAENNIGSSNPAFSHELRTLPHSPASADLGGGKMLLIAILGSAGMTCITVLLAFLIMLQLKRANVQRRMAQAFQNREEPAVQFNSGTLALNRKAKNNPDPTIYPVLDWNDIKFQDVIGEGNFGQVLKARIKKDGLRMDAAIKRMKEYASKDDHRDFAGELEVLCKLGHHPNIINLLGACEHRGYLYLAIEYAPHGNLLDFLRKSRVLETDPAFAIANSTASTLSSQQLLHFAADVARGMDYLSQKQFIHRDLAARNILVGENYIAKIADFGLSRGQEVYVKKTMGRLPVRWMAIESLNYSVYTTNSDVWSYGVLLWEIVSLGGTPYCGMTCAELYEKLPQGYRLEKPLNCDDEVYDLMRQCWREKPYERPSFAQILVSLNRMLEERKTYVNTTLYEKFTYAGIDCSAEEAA

For “MPA-Br: T7 peptide linked via 3-mercaptopropionic acid to a bromoacetimide-activated 10K PEG tetramer through a linear sulfane moiety (HHHRHSF; not fully specified (N-terminus); also: linked via 3-mercaptopropionic acid to bromoacetimide-activated 10K PEG tetramer (sulfane), site not given here)”, in data set [1], the “activation of MAPK (phosphorylated MAPK:total MAPK)” value is reported as “downstream activation of MAPK”. Further, the “binding to recombinant human IgG Fc (fluorescence intensity)” value in data set [2] is “no dose dependent increase in fluorescence intensity; also recorded: No saturation of binding”. In data set [3], the “CI over time after COVID-19 serum challenge” value was “restoration of CI loss”. Further, the “AUC normalised to vehicle control” value in data set [3] (COVID-19 patient sample IgM, 0.5 to 5 ng/mL MPA-Br) is recorded as “statistically significant increase in normalized CI”. In addition, in [3] (COVID-19 serum (IgG8, IgM5, IgM6) compared to HD), the “cell index difference between cells incubated with serum+AV-001 and serum+vehicle control” value is listed as “Significant differences”. Besides, the “total AUC normalised to vehicle control treatment” value (“total AUC normalised” for short) in data set [3] (COVID-19 serum IgG8 and IgM6 (FIG. 10D-E), both AV-001 doses) is listed as “statistically significant increase in CI”. Moreover, in [3] (serum HD1, high dose 5 ng/mL), the “total AUC normalised” value was “statistically significant increase in normalised cell impedance”. Also, in data set [4] (setting [10]), the arterial oxygenation entry is “superiority to parental Vasculotide” and the “protection from wasting (fraction of initial body weight)” value was “superiority to parental Vasculotide”. In data set [4] (mouse, in vivo), the activity score entry is listed as “significantly improved”; the “all study endpoints compared to parental Vasculotide” value is “performed equal, or better than parental Vasculotide”; the “lung oxygenation (SpO2)” value is “significantly improved”; the “thermal regulation (body temperature)” value is reported as “significantly improved”. Besides, in data set [4] (mouse, in vivo, ip), the “overall survival of infected mice” value is listed as “significantly improved overall survival”. Also, the “drug accumulation, multi-dose (MD) PK vs single dose” value in data set [5] (120 ug/kg IV once every 24 hours for three consecutive days) was “no drug accumulation”. For the same substance, in [5] (setting [11]), the clearance rate entry is listed as “similar” and the volume of distribution entry is recorded as “similar”. Moreover, the “vascular leakage (extravassation of Evans blue dye) vs vehicle treated mice” value in data set [6] is on record as “significantly less vascular leakage”. Also, the “normalized CI overtime compared to untreated HUVEC” value in data set [7] (TNF-a challenge (0.5 ng/mL), MPA-Br 5 ng/mL) is “significant increase in normalized CI”. In addition, the “total AUC normalised” value in [7] (TNF-a challenged cells, MPA-Br 5 ng/mL) is listed as “statistically significant increase in normalized CI”. For the same substance, the “normalized CI overtime compared to untreated HUVEC” value in data set [7] (thrombin challenge (0.25 ng/mL), MPA-Br 0.5 to 5 ng/mL) was “significant increase in normalized CI”. Further, the “total AUC normalised” value in data set [7] (thrombin challenged cells, MPA-Br 0.5 to 5 ng/mL) is recorded as “statistically significant increase in normalized CI”. For the same substance, the “doses significantly activating Tie2 (pTie2/total Tie2 vs no treatment)” value in data set [8] is on record as 10-100 ng. For the same substance, the “fold lower concentration for statistically significant Tie2 activation vs parental Vasculotide” value in [9] came to 10 fold.
